Reference: patent publication US20080306162A1, “Treatment of Inflammatory Disorders and Pain” (priority 2005, published 2008)

What was measured:
TNFα = assay: LPS mouse assay, serum TNFα by ELISA; assay type: in vivo, Balb C ByJ mice; conditions: i.p. or oral 30 minutes before 1 mg/kg LPS i.p., serum 2 hours after LPS
Procedure: (§1) 7 week old Balb C ByJ mice (24-28 g) were administered, either by i.p. (5 ml/kg) or oral (10 ml/kg) administration, with vehicle or test article. 30 minutes later these animals were challenged with an intraperitoneal injection of 1 mg/kg LPS. 2 hours after LPS challenge blood samples were collected under light isoflurane anaesthesia into normal tubes by retro-orbital puncture. Samples were allowed to clot at room temperature and then spun at 6000 g for 3 min at 4° C. Serum was stored at −20° C. until use. Serum TNFα and IL-10 levels were analysed in duplicate by ELISA technique.

IL-10 = assay: LPS mouse assay, serum IL-10 by ELISA; assay type: in vivo, Balb C ByJ mice; conditions: i.p. or oral 30 minutes before 1 mg/kg LPS i.p., serum 2 hours after LPS
Procedure: as §1

male Wistar rats = assay: Carrageenan paw assay; assay type: in vivo; conditions: rat
Procedure: Fasted (18 hour) male Wistar rats (105-130 g) were weighed and a basal mercury plethysmometer reading was taken of the right hind paw by submerging the paw in the mercury up to the tibiotarsal joint. Subsequently, vehicles, reference items and test articles were administered by oral gavage (10 ml/kg). Half an hour after treatment, 0.1 ml of 2% carrageenan in 0.9% saline was injected into the subplanatar area of the right hind paw. The right paw was measured again with the plethysmometer at 1, 2, 3, 4 and 5 hours after carrageenan administration.

## CC(C)(CO)NCC(O)c1cc(Cl)c(N)c(Cl)c1 (racemic) [Example 1, 2-[2-(4-amino-3,5-dichlorophenyl)-2-hydroxyethylamino]-2-methylpropan-1-ol]
TNFα; 10 mg/kg
  inhibition of TNFα production: 60%
TNFα; 30 mg/kg
  inhibition of TNFα production: 61%
IL-10; 10 mg/kg
  IL-10 production potentiated: 417%
IL-10; 30 mg/kg
  IL-10 production potentiated: 392%

## CC(C)(CO)NCC(O)c1cc(Cl)c(N)c(Cl)c1 (single isomer, unassigned) [2-[2-(4-amino-3,5-dichlorophenyl)-2-hydroxyethylamino]-2-methylpropan-1-ol]
Male Wistar rats; 0.3 mg/kg oral gavage
  inhibition in the carageenan paw assay: 18%
Male Wistar rats; 1 mg/kg oral gavage
  inhibition in the carageenan paw assay: 28%
Male Wistar rats; 3 mg/kg oral gavage
  inhibition in the carageenan paw assay: 26%
Male Wistar rats; 10 mg/kg oral gavage
  inhibition in the carageenan paw assay: 59%
Male Wistar rats; 30 mg/kg oral gavage
  inhibition in the carageenan paw assay: 71%
Male Wistar rats; 0.3 to 30 mg/kg oral gavage
  anti-inflammatory dose response in the carageenan paw assay: clear anti-inflammatory dose response curve

## CC(C)(CO)NCC(O)c1ccccc1 (stereo not shown) [Example 2, 2-(2-phenyl-2-hydroxyethylamino)-2-methyl-propan-1-ol]
TNFα; 10 mg/kg
  inhibition of TNFα production: 47%
TNFα; 30 mg/kg
  inhibition of TNFα production: 58%
IL-10; 10 mg/kg
  IL-10 production potentiated: 345%
IL-10; 30 mg/kg
  IL-10 production potentiated: 366%

## CC(C)(CO)NCC(O)c1ccc(F)cc1 (stereo not shown) [Example 3, 2-[2-(4-fluorophenyl)-2-hydroxyethylamino]-2-methylpropan-1-ol]
TNFα; 10 mg/kg
  inhibition of TNFα production: 37%
TNFα; 30 mg/kg
  inhibition of TNFα production: 37%
IL-10; 10 mg/kg
  IL-10 production potentiated: 106%
IL-10; 30 mg/kg
  IL-10 production potentiated: 125%

## CC(C)Cc1ccc(C(C)C(=O)O)cc1 (stereo not shown) [Ibuprofen, reference compound]
Male Wistar rats; 100 mg/kg oral gavage
  anti-inflammatory in the carageenan paw assay: 38%
